Test results as given in patent publication US20240382608A1, “NOVEL LIGAND-DRUG CONJUGATE OF CAMPTOTHECIN ANALOGS, INTERMEDIATES, PHARMACEUTICAL COMPOSITION AND APPLICATION THEREOF” (SHANGHAI MICURX PHARMACEUTICAL CO., LTD., priority 2023, published 2024).
Where two headings read alike, the source gives them in different places.

Key:
SK-BR-3 = experiment: In vitro cytotoxicity test of camptothecin payloads (CellTiter-Glo); assay type: cell-based; conditions: Homo sapiens, SK-BR-3, 72 h, read-out: SK-BR-3 Cytotoxicity IC50 (nM)
Experimental: (§1) Human lung adenocarcinoma cell line A549, NCI-N87, and SK-BR-3 were used to evaluate the cytotoxicity of small molecule fragment of the present invention. These cells were seeded to a 96-well plate at 2000 cells per well.

NCI-N87 = experiment: as above; assay type: cell-based; conditions: Homo sapiens, NCI-N87, 72 h, read-out: NCI-N87 Cytotoxicity IC50 (nM)
Experimental: as §1

A549 = experiment: as above; assay type: cell-based; conditions: Homo sapiens, A549, 72 h
Experimental: as §1

Rat PK study = assay type: in vivo; conditions: Sprague-Dawley (SD)
Experimental: Male SD rat, 180-200 g (BK lab. Animal Ltd.), 3 Rats/group. Blood samples were collected by orbital vein after IV administration 1 mg/kg dosage at 0.083, 0.5, 1, 2, 4, and 8 h into heparin-containing tubes, centrifugated at 10000 rpm for 3 min to get plasma. All samples were stored at −20° C. until they were sent to Suzhou Chengyao Biotech Co., Ltd. for analysis.

[1] = read-out: A549 Cytotoxicity IC50 (nM)
[2] = male, rat, in vivo, iv, 1 mg/kg

## CC[C@@]1(O)C(=O)OCc2c1cc1n(c2=O)Cc2c-1nc1ccc(N)c3c1c2C=CS3 [Example 1, (S)-4-amino-9-ethyl-9-hydroxy-12,15-dihydro-13H-pyrano[3′,4′:6,7]indolizino[1,2-b]thiopyrano[4,3,2-de]quinoline-10,13(9H)-dione]
SK-BR-3
  IC50: 38.6 nM
NCI-N87
  IC50: 5.2 nM
A549; [1]
  IC50: 10.7 nM
Rat PK study; [2]
  MRT inf: 12 min
  Vd: 0.9 L/kg
  half-life: 18 min

## CC[C@@]1(O)C(=O)OCc2c1cc1n(c2=O)Cc2c-1nc1cc(F)c(N)c3c1c2C=CS3 [Example 2, (S)-4-amino-9-ethyl-5-fluoro-9-hydroxy-12,15-dihydro-13H-pyrano[3′,4′:6,7]indolizino[1,2-b]thiopyrano[4,3,2-de]quinoline-10,13(9H)-dione]
A549; [1]
  IC50: 0.8 nM

## CC[C@@]1(O)C(=O)OCc2c1cc1n(c2=O)Cc2c-1nc1ccc(NC(=O)CO)c3c1c2C=CS3 [Example 13]
SK-BR-3
  IC50: 52.3 nM
NCI-N87
  IC50: 21.7 nM
A549; [1]
  IC50: 26.4 nM

## CC[C@@]1(O)C(=O)OCc2c1cc1n(c2=O)Cc2c-1nc1cc(F)c(C)c3c1c2[C@@H](NC(=O)CO)CC3 [drawing 109]
SK-BR-3
  IC50: 802 nM
NCI-N87
  IC50: 26 nM
A549; [1]
  IC50: 163 nM

## CC[C@@]1(O)C(=O)OCc2c1cc1n(c2=O)Cc2c-1nc1ccc(N)c3c1c2CCS3 [drawing 110]
A549; cell viability after 3 days, 2000 cells per well, read-out: A549 Cytotoxicity IC50
  IC50: 22.3 nM

## CC[C@@]1(O)C(=O)OCc2c1cc1n(c2=O)Cc2c-1nc1cc(F)c(C)c3c1c2[C@@H](NC(=O)CO)CC3 [drawing 111]
Rat PK study; in vivo, male SD rat, IV 1 mg/kg, plasma, read-out: MRT0-∞
  MRT inf: 30 min
Rat PK study; in vivo, male SD rat, IV 1 mg/kg, plasma, read-out: T1/2 (converted)
  half-life: 30 min
Rat PK study; in vivo, male SD rat, IV 1 mg/kg, plasma, read-out: Vss
  Vd: 20.6 L/kg

## CC[C@@]1(O)C(=O)OCc2c1cc1n(c2=O)Cc2c-1nc1ccc(N)c3c1c2CCS3 [drawing 112]
Rat PK study; male SD rat, IV 1 mg/kg, plasma, read-out: MRT0-∞
  MRT inf: 114 min
Rat PK study; male SD rat, IV 1 mg/kg, plasma, read-out: T1/2 (converted)
  half-life: 126 min
Rat PK study; male SD rat, IV 1 mg/kg, plasma, read-out: Vss
  Vd: 7.2 L/kg
